These results are taken from publication PMC12541620 (Acta Pharmaceutica Sinica. B, 2025).

The target of assay [1] is T1, hCES2A (Homo sapiens, UniProt O00748).
T1 sequence (O00748 27-559): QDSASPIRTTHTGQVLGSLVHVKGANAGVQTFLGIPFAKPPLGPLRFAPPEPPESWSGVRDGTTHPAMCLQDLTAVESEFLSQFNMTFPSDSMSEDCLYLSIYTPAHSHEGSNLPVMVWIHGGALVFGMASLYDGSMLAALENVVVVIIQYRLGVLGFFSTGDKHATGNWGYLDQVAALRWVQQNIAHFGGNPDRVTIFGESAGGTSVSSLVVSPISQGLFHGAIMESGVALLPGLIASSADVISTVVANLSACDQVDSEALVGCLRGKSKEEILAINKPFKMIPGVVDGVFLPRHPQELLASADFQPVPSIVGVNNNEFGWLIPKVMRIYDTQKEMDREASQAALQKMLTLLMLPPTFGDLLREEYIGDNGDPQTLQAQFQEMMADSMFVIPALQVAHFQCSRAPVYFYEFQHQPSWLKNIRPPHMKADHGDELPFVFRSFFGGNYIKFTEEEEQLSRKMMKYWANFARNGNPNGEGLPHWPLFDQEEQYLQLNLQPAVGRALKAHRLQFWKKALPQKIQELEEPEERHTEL
Put plainly: hCES2A inhibition assay. It is filed as biochemical. To be noted: for Ratio: IC50 3 min / IC50 33 min.

In a further assay the target is hAChE (Homo sapiens, UniProt P22303). The assay is described as follows: hAChE inhibition assay. Type of assay: biochemical.
hAChE, sequence (P22303 32-614): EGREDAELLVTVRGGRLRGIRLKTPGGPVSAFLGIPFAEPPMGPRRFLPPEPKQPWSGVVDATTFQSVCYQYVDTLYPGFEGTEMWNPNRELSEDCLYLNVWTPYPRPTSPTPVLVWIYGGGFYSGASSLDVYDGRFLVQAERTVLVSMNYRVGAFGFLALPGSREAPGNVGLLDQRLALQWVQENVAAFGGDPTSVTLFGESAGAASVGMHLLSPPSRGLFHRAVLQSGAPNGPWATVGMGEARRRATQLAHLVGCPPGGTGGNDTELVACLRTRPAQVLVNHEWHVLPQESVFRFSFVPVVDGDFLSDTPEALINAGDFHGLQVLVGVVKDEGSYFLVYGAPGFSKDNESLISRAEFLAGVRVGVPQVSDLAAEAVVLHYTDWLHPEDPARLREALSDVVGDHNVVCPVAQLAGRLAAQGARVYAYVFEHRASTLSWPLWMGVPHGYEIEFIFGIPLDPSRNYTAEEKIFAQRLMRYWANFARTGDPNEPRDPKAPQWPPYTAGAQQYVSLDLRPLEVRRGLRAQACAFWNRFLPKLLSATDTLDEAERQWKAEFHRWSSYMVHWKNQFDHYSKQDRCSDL
The test system of assay [2] is irinotecan-triggered gut toxicity (ITGT) in tumor-bearing mice. The assay is described as follows: irinotecan-triggered gut toxicity in tumor-bearing mice. Type of assay: in vivo, C57BL/6J mice. The following applies: C3 25 and 50 mg/kg; LPA 10 mg/kg.
Assay [3] has as its target T1, hCES2A. Put plainly: dialysis assay. Type of assay: biochemical. To be noted: 10 μmol/L, 33 min preincubation, dialysis 2 and 4 h.
[4] abbreviates: IC50 (nmol/L) 3 min, 3 min pre-incubation, FD substrate.
[5] abbreviates: IC50 (nmol/L) 33 min, 33 min pre-incubation, FD substrate.

Where two headings read alike, the source gives them in different places.

By IC50 is commonly meant the concentration at which inhibition is half-maximal. A low value points to greater potency in that assay.

Consider `COc1cc2c(cc1OC)C(=O)/C(=C/c1ccc(F)cc1)C2` [Compound B1], for which the IC50 against hCES2A [1] amounted to 20900 nM.

On to `COc1cc2c(cc1OC)C(=O)/C(=C/c1ccccc1Cl)C2` [Compound B2], for which the IC50 on hCES2A [1] came out at 12100 nM.

The compound `COc1cc2c(cc1OC)C(=O)/C(=C/c1ccccc1F)C2` [Compound B3] yielded a half-maximal inhibitory concentration (IC50) against hCES2A [1] of 2970 nM. Against the preceding compound, the IC50 is about 4.1-fold lower.

Turning to `COc1ccccc1/C=C1\Cc2cc(OC)c(OC)cc2C1=O` [Compound B4], the IC50 against hCES2A [1] was found to be 5500 nM. This IC50 is about 1.9-fold higher than that of the compound before.

At hCES2A [1], `COc1cccc(/C=C2\Cc3cc(OC)c(OC)cc3C2=O)c1` [Compound B5] displayed an IC50 of 64800 nM.

`COc1ccc(/C=C2\Cc3cc(OC)c(OC)cc3C2=O)cc1` [Compound B6] showed an IC50 against hCES2A [1] of 17900 nM.

`COc1cc2c(cc1OC)C(=O)/C(=C/c1ccccc1O)C2` [Compound B7]: the “enhancement of anti-hCES2A effect relative to A3” value on hCES2A [1] is reported as 8.36 folds. In addition, the Ratio at hCES2A [1] is 0.33. For the same compound, the 50% inhibitory concentration (IC50) turned out to be 106 ± 15.5 nM on hCES2A [1] (setting [4]); 325 ± 59.5 nM against hCES2A [1] (setting [5]); 110 nM on hCES2A [1] (IC50 against hCES2A, FD substrate, 3 min preincubation). In addition, at hAChE, the anti-hAChE activity result is reported as “very weak anti-hAChE activity”.

For `COc1cc2c(cc1OC)C(=O)/C(=C/c1c(O)cccc1Br)C2` [Compound B20], half-maximal inhibition at hCES2A [1] (IC50) was put at 290 nM. In other words, the sub-micromolar range.

The compound `COc1cc2c(cc1OC)C(=O)/C(=C/c1cccc(OC)c1O)C2` [Compound B21] showed an IC50 against hCES2A [1] of 400 nM.

With `COc1cc2c(cc1OC)C(=O)/C(=C/c1ccccc1OC(=O)N1CCN(C)CC1)C2` [Compound C7], the Ratio on hCES2A [1] is 7.32. Moreover, the half-maximal inhibitory concentration (IC50) against hCES2A [1] (setting [4]) was 258 ± 37.8 nM; on hCES2A [1] (setting [5]) it was 35.3 ± 3.67 nM.

As for `COc1cc2c(cc1OC)C(=O)/C(=C/c1ccccc1OC(=O)N1CCC(N3CCCCC3)CC1)C2` [Compound C8], the Ratio at hCES2A [1] amounted to 3.25. Moreover, the values for the IC50 at hCES2A [1] (setting [4]) and against hCES2A [1] (setting [5]) were 732 ± 71.7 nM and 225 ± 13.4 nM, respectively.

As to `COc1cc2c(cc1OC)C(=O)C(CC1CCN(Cc3ccccc3)CC1)C2` (centres unmarked) [Donepezil, reference compound], at hCES2A [1], the IC50 was found to be 3910 nM.

`CN(C)C(=O)C(CCN1CCC(O)(c2ccc(Cl)cc2)CC1)(c1ccccc1)c1ccccc1` [LPA, loperamide]: the “elevated colon IL-6, IL-1β and TNF-α levels” value in assay [2] is given as “reversed”. Besides, the “hCES2A activity after dialysis” value at hCES2A [3] was “gradually recovering trend over time”.
